From ChEMBL document CHEMBL2413072, “Synthesis and in vitro anticancer studies of novel C-2 arylidene congeners of lantadenes” (2013)

Tests used:
Type in all cases: functional
MDA-MB-231 [1] = assay: Growth inhibition of human MDA-MB-231 cells assessed as growth inhibition at 10 uM by sulforhodamine B assay; settings: read-out: GI
COLO 205 [2] = assay: Growth inhibition of human COLO205 cells assessed as cell growth at 10 uM by sulforhodamine B assay; settings: read-out: Activity
SF-539 [3] = assay: Growth inhibition of human SF539 cells assessed as cell growth at 10 uM by sulforhodamine B assay; settings: read-out: Activity
ACHN [4] = assay: Growth inhibition of human ACHN cells assessed as cell growth at 10 uM by sulforhodamine B assay; settings: read-out: Activity
SK-MEL-5 [5] = assay: Growth inhibition of human SK-MEL-5 cells assessed as cell growth at 10 uM by sulforhodamine B assay; settings: read-out: Activity
UACC-62 = assay: Growth inhibition of human UACC62 cells assessed as growth inhibition at 10 uM by sulforhodamine B assay; settings: read-out: GI
HT-29 = assay: Growth inhibition of human HT-29 cells assessed as cell growth at 10 uM by sulforhodamine B assay; settings: read-out: Activity
DU-145 = assay: Growth inhibition of human DU145 cells assessed as growth inhibition at 10 uM by sulforhodamine B assay; settings: read-out: GI
HCT-116 = assay: Growth inhibition of human HCT116 cells assessed as growth inhibition at 10 uM by sulforhodamine B assay; settings: read-out: GI
OVCAR-3 [6] = assay: Growth inhibition of human OVCAR3 cells assessed as growth inhibition at 10 uM by sulforhodamine B assay; settings: read-out: GI
COLO 205 [7] = assay: Growth inhibition of human COLO205 cells assessed as growth inhibition at 10 uM by sulforhodamine B assay; settings: read-out: GI
KM12 [8] = assay: Growth inhibition of human KM12 cells assessed as growth inhibition at 10 uM by sulforhodamine B assay; settings: read-out: GI
NCI-H460 [9] = assay: Growth inhibition of human NCI-H460 cells assessed as growth inhibition at 10 uM by sulforhodamine B assay; settings: read-out: GI
SR = assay: Growth inhibition of human SR cells assessed as cell growth at 10 uM by sulforhodamine B assay; settings: read-out: Activity
OVCAR-3 [10] = assay: Growth inhibition of human OVCAR3 cells assessed as cell growth at 10 uM by sulforhodamine B assay; settings: read-out: Activity
SK-MEL-5 [11] = assay: Growth inhibition of human SK-MEL-5 cells assessed as growth inhibition at 10 uM by sulforhodamine B assay; settings: read-out: GI
LOX IMVI = assay: Growth inhibition of human LOXIMVI cells assessed as cell growth at 10 uM by sulforhodamine B assay; settings: read-out: Activity
SNB-19 = assay: Growth inhibition of human SNB19 cells assessed as cell growth at 10 uM by sulforhodamine B assay; settings: read-out: Activity
ACHN [12] = assay: Growth inhibition of human ACHN cells assessed as growth inhibition at 10 uM by sulforhodamine B assay; settings: read-out: GI
[13] = Growth inhibition of human EKVX cells assessed as growth inhibition at 10 uM by sulforhodamine B assay; settings: read-out: GI
IGROV-1 [14] = assay: Growth inhibition of human IGROV1 cells assessed as cell growth at 10 uM by sulforhodamine B assay; settings: read-out: Activity
SF-295 = assay: Growth inhibition of human SF295 cells assessed as cell growth at 10 uM by sulforhodamine B assay; settings: read-out: Activity
SK-MEL-2 = assay: Growth inhibition of human SK-MEL-2 cells assessed as growth inhibition at 10 uM by sulforhodamine B assay; settings: read-out: GI
RXF 393 = assay: Growth inhibition of human RXF393 cells assessed as cell growth at 10 uM by sulforhodamine B assay; settings: read-out: Activity
KM12 [15] = assay: Growth inhibition of human KM12 cells assessed as cell growth at 10 uM by sulforhodamine B assay; settings: read-out: Activity
UO-31 [16] = assay: Growth inhibition of human UO31 cells assessed as cell growth at 10 uM by sulforhodamine B assay; settings: read-out: Activity
T47D = assay: Growth inhibition of human T47D cells assessed as cell growth at 10 uM by sulforhodamine B assay; settings: read-out: Activity
MDA-MB-435 = assay: Growth inhibition of human MDA-MB-435 cells assessed as cell growth at 10 uM by sulforhodamine B assay; settings: read-out: Activity
BT-549 [17] = assay: Growth inhibition of human BT549 cells assessed as cell growth at 10 uM by sulforhodamine B assay; settings: read-out: Activity
SF-268 = assay: Growth inhibition of human SF268 cells assessed as cell growth at 10 uM by sulforhodamine B assay; settings: read-out: Activity
SW-620 = assay: Growth inhibition of human SW620 cells assessed as growth inhibition at 10 uM by sulforhodamine B assay; settings: read-out: GI
NCI-H23 = assay: Growth inhibition of human NCI-H23 cells assessed as cell growth at 10 uM by sulforhodamine B assay; settings: read-out: Activity
MCF7 = assay: Growth inhibition of human MCF7 cells assessed as growth inhibition at 10 uM by sulforhodamine B assay; settings: read-out: GI
SN12C = assay: Growth inhibition of human SN12C cells assessed as growth inhibition at 10 uM by sulforhodamine B assay; settings: read-out: GI
MDA-MB-468 = assay: Growth inhibition of human MDA-MB-468 cells assessed as cell growth at 10 uM by sulforhodamine B assay; settings: read-out: Activity
MDA-MB-231 [18] = assay: Growth inhibition of human MDA-MB-231 cells assessed as cell growth at 10 uM by sulforhodamine B assay; settings: read-out: Activity
[19] = Growth inhibition of human EKVX cells assessed as cell growth at 10 uM by sulforhodamine B assay; settings: read-out: Activity
CCRF-CEM = assay: Growth inhibition of human CCRF-CEM cells assessed as cell growth at 10 uM by sulforhodamine B assay; settings: read-out: Activity
[20] = Growth inhibition of human NCI-ADR-RES cells assessed as growth inhibition at 10 uM by sulforhodamine B assay; settings: read-out: GI
[21] = Growth inhibition of human HCC2998 cells assessed as cell growth at 10 uM by sulforhodamine B assay; settings: HCC 2998, read-out: Activity
HL-60(TB) = assay: Growth inhibition of human HL-60(TB) cells assessed as growth inhibition at 10 uM by sulforhodamine B assay; settings: read-out: GI
786-0 [22] = assay: Growth inhibition of human 786-0 cells assessed as cell growth at 10 uM by sulforhodamine B assay; settings: read-out: Activity
SF-539 [23] = assay: Growth inhibition of human SF539 cells assessed as growth inhibition at 10 uM by sulforhodamine B assay; settings: read-out: GI
786-0 [24] = assay: Growth inhibition of human 786-0 cells assessed as growth inhibition at 10 uM by sulforhodamine B assay; settings: read-out: GI
NCI-H460 [25] = assay: Growth inhibition of human NCI-H460 cells assessed as cell growth at 10 uM by sulforhodamine B assay; settings: read-out: Activity
OVCAR-5 = assay: Growth inhibition of human OVCAR5 cells assessed as growth inhibition at 10 uM by sulforhodamine B assay; settings: read-out: GI
UO-31 [26] = assay: Growth inhibition of human UO31 cells assessed as growth inhibition at 10 uM by sulforhodamine B assay; settings: read-out: GI
BT-549 [27] = assay: Growth inhibition of human BT549 cells assessed as growth inhibition at 10 uM by sulforhodamine B assay; settings: read-out: GI
IGROV-1 [28] = assay: Growth inhibition of human IGROV1 cells assessed as growth inhibition at 10 uM by sulforhodamine B assay; settings: read-out: GI

CC1(C)C[C@@H](O)[C@]2(C(=O)O)CC[C@]3(C)C(=CC[C@@H]4[C@@]5(C)CC[C@H](O)C(C)(C)[C@@H]5CC[C@]43C)[C@@H]2C1
inhibition of growth at 10 µM (MDA-MB-231 [1]): < 10% | growth at 10 µM (COLO 205 [2]): 109% | growth at 10 µM (SF-539 [3]): 106% | growth at 10 µM (ACHN [4]): 102% | growth at 10 µM (SK-MEL-5 [5]): 98.7% | inhibition of growth at 10 µM (UACC-62): 11.8% | growth at 10 µM (HT-29): 109% | inhibition of growth at 10 µM (DU-145): < 10% | inhibition of growth at 10 µM (HCT-116): 17.3% | inhibition of growth at 10 µM (OVCAR-3 [6]): < 10% | inhibition of growth at 10 µM (COLO 205 [7]): < 10% | inhibition of growth at 10 µM (KM12 [8]): < 10% | inhibition of growth at 10 µM (NCI-H460 [9]): < 10% | growth at 10 µM (SR): 78% | growth at 10 µM (OVCAR-3 [10]): 101% | inhibition of growth at 10 µM (SK-MEL-5 [11]): < 10% | growth at 10 µM (LOX IMVI): 89% | growth at 10 µM (SNB-19): 98.2% | inhibition of growth at 10 µM (ACHN [12]): < 10% | inhibition of growth at 10 µM [13]: < 10% | growth at 10 µM (IGROV-1 [14]): 97.6% | growth at 10 µM (SF-295): 153% | inhibition of growth at 10 µM (SK-MEL-2): < 10% | growth at 10 µM (RXF 393): 112% | growth at 10 µM (KM12 [15]): 90.1% | growth at 10 µM (UO-31 [16]): 85.5% | growth at 10 µM (T47D): 93% | growth at 10 µM (MDA-MB-435): 116% | growth at 10 µM (BT-549 [17]): 90.3% | growth at 10 µM (SF-268): 102% | inhibition of growth at 10 µM (SW-620): < 10% | growth at 10 µM (NCI-H23): 102% | inhibition of growth at 10 µM (MCF7): < 10% | inhibition of growth at 10 µM (SN12C): 16.6% | growth at 10 µM (MDA-MB-468): 111% | growth at 10 µM (MDA-MB-231 [18]): 98.6% | growth at 10 µM [19]: 104% | growth at 10 µM (CCRF-CEM): 88.4% | inhibition of growth at 10 µM [20]: < 10% | growth at 10 µM [21]: 109% | inhibition of growth at 10 µM (HL-60(TB)): 18% | growth at 10 µM (786-0 [22]): 90.7% | inhibition of growth at 10 µM (SF-539 [23]): < 10% | inhibition of growth at 10 µM (786-0 [24]): 13.8% | growth at 10 µM (NCI-H460 [25]): 101% | inhibition of growth at 10 µM (OVCAR-5): < 10% | inhibition of growth at 10 µM (UO-31 [26]): 13.9% | inhibition of growth at 10 µM (BT-549 [27]): < 10% | inhibition of growth at 10 µM (IGROV-1 [28]): < 10%

COc1cc(/C=C2\C[C@]3(C)[C@H]4CC=C5[C@@H]6CC(C)(C)C[C@@H](O)[C@]6(C(=O)O)CC[C@@]5(C)[C@]4(C)CC[C@H]3C(C)(C)C2=O)ccc1O
inhibition of growth at 10 µM (MDA-MB-231 [1]): < 10% | growth at 10 µM (COLO 205 [2]): 94.8% | growth at 10 µM (SF-539 [3]): 96.1% | growth at 10 µM (ACHN [4]): 85.6% | growth at 10 µM (SK-MEL-5 [5]): 88.1% | inhibition of growth at 10 µM (UACC-62): 25% | growth at 10 µM (HT-29): 85.5% | inhibition of growth at 10 µM (DU-145): < 10% | inhibition of growth at 10 µM (HCT-116): 15.2% | inhibition of growth at 10 µM (OVCAR-3 [6]): < 10% | inhibition of growth at 10 µM (COLO 205 [7]): < 10% | inhibition of growth at 10 µM (KM12 [8]): 16% | inhibition of growth at 10 µM (NCI-H460 [9]): < 10% | growth at 10 µM (SR): 87.1% | growth at 10 µM (OVCAR-3 [10]): 106% | inhibition of growth at 10 µM (SK-MEL-5 [11]): 11.9% | growth at 10 µM (LOX IMVI): 88.4% | growth at 10 µM (SNB-19): 97% | inhibition of growth at 10 µM (ACHN [12]): 14.4% | inhibition of growth at 10 µM [13]: 11.5% | growth at 10 µM (IGROV-1 [14]): 97.8% | growth at 10 µM (SF-295): 76.5% | inhibition of growth at 10 µM (SK-MEL-2): < 10% | growth at 10 µM (RXF 393): 109% | growth at 10 µM (KM12 [15]): 84% | growth at 10 µM (UO-31 [16]): 75.5% | growth at 10 µM (T47D): 81.1% | growth at 10 µM (MDA-MB-435): 97.7% | growth at 10 µM (BT-549 [17]): 106% | growth at 10 µM (SF-268): 109% | inhibition of growth at 10 µM (SW-620): < 10% | growth at 10 µM (NCI-H23): 85% | inhibition of growth at 10 µM (MCF7): 22.5% | inhibition of growth at 10 µM (SN12C): 12.5% | growth at 10 µM (MDA-MB-468): 103% | growth at 10 µM (MDA-MB-231 [18]): 97.9% | growth at 10 µM [19]: 88.5% | growth at 10 µM (CCRF-CEM): 82% | inhibition of growth at 10 µM [20]: < 10% | growth at 10 µM [21]: 95.2% | inhibition of growth at 10 µM (HL-60(TB)): 28.9% | growth at 10 µM (786-0 [22]): 102% | inhibition of growth at 10 µM (SF-539 [23]): < 10% | inhibition of growth at 10 µM (786-0 [24]): < 10% | growth at 10 µM (NCI-H460 [25]): 102% | inhibition of growth at 10 µM (OVCAR-5): < 10% | inhibition of growth at 10 µM (UO-31 [26]): 24.1% | inhibition of growth at 10 µM (BT-549 [27]): < 10% | inhibition of growth at 10 µM (IGROV-1 [28]): < 10%
